Experimental data taken from paper PMC8145986, “In Vitro Enzymatic and Kinetic Studies, and In Silico Drug-Receptor Interactions, and Drug-Like Profiling of the 5-Styrylbenzamide Derivatives as Potential Cholinesterase and β-Secretase Inhibitors with Antioxidant Properties” (Antioxidants, 2021).

Key:
[1] = Nitric oxide radical scavenging assay (Griess reaction); conditions: NO radical scavenging
Method: Nitric oxide was generated from sodium nitroprusside and measured by Griess’ reaction following the literature method. The experiment was done in triplicate with ascorbic acid (vitamin C) used as a positive control for the assay. In total, 50 μL of each of the test compounds and the positive control at various concentrations (0.1, 0.5, 1.0, 5.0, and 10.0 μM in methanol) were added to each designated well of the 96 well plate. A total of 50 μL of sodium nitroprusside (10 mM) prepared in saline phosphate buffer (pH = 7.4) was then added to each well and the reaction mixture incubated at room temperature for 3 h. Afterward, 300 μL of the Griess reagent (a mixture of 0.2% N-(1-naphthyl)ethylenediamine dihydrochloride and 2% sulfanilamide in […]) was added to each well and absorbance was read at 546 nm using a Varioskan flash microplate spectrophotometer reader.

AChE = target: T1, AChE (Homo sapiens, UniProt P22303); assay: Enzyme kinetic study against AChE (Lineweaver-Burk and Dixon plots); format: biochemical
T1 construct: purchased BioLegend (via Biocom Africa (Pty) Ltd.)
Method: (§1) The AChE and BChE enzyme kinetic studies were performed in triplicate in a 96-well plate following a procedure described in our previous study. Varying concentrations of 2a or 3c (0, 2.5, 3.5, and 5 μM) and AChI or BChI (0.1, 0.5, 2.5, and 5 mM) were used for the kinetic assays. The absorbances were measured after every 1 s for 10 s at a wavelength of 412 nm using a microplate spectrophotometer reader. The Lineweaver–Burk plots (plot of the inverse of velocity (1/v) against the inverse of the substrate concentration (1/[S])) were constructed.

BChE = target: T2, BChE (Homo sapiens, UniProt P06276); assay: Enzyme kinetic study against BChE (Lineweaver-Burk and Dixon plots); format: biochemical
T2 construct: purchased Cloud-Clone Corp. (via Biocom Africa (Pty) Ltd.)
Method: as §1

β-secretase = target: T3, β-secretase (Homo sapiens, UniProt P56817); assay: Enzyme kinetic study on β-secretase (Lineweaver-Burk and Dixon plots); format: biochemical
T3 construct: purchased Thermo Fisher Scientific Corporation; host or cells: baculovirus-expressed
Method: Compounds 2a and 3b were subjected to kinetic studies on β-secretase using substrate concentrations 150, 300, and 450 nM at increasing inhibitor concentrations (0, 4, 8, and 16 μM) following a method reported before. The fluorescence readings were recorded after every 1 s for 10 s at excitation and emission values of 545 nm and 590 nm, respectively. The Lineweaver–Burk plots (plots of the inverse of velocity against the inverse of the substrate concentration) were constructed to assess changes in enzymatic parameters. The Dixon plots were also prepared to determine the inhibitor constants, Ki.

[2] = Cytotoxicity (MTT assay) on Vero cells; conditions: monkey, Vero cells (normal monkey kidney cells)
Method: (§2) The cytotoxicity activity of the compounds was evaluated using the 3-(4,5-dimethylthiazol-2-yl)-2,5-diphenyltetrazolium bromide (MTT) assay following a modification of a method by Mosmann. Normal monkey kidney cells (Vero cells) and adeno-carcinomic human epithelial cells (A549 cells) were maintained in Dulbecco’s modified Eagle’s medium (DMEM, Gibco) supplemented with 10% fetal bovine serum (FBS) and 1% penicillin/streptomycin in culture flasks and incubated at 37 °C in 5% CO2. […] Cells were seeded at 1 × 10^5 cells/well and incubated overnight to allow cell attachment. After 24 h, treatments were administered with different concentrations (0, 2.5, 5, 10, 25, 50, and 100 μM) of the compounds and doxorubicin (positive control). After 24 h of incubation, 20 μL of the MTT solution (5 mg/mL) was added in all the wells, which was followed by 4 h of incubation.

in vitro = conditions: human, A549 cells (adeno-carcinomic human epithelial cells)
Method: as §2

Vero cells = assay: LPS-induced ROS production in Vero cells (H2DCF-DA); format: cell-based, monkey; conditions: 10 μM compound, LPS 1 μg/mL, 24 h (Figure 9a)
Method: Mitochondrial ROS levels in Vero and A549 cell lines was measured using the 2′,7′-dichlorofluorescin diacetate (H2DCF-DA) (Sigma-Aldrich, St. Louis, MO, USA, Merck, Darmstadt, Germany), fluorescent probe. Cells (1 × 10^5) were seeded in 96 well plates and incubated overnight at 37 °C in 5% CO2. A minimum non-toxic concentration (10 μM) of compounds (2a and 3b) was added separately as treatment and further incubated for an hour, after which LPS (1 μg/mL) was added to induce the production of ROS. After 24 h of incubation, the media was aspirated, cells were rinsed with PBS, and followed by the addition of H2DCF-DA (10 μM) for 30 min in the dark. The absorbance of the fluorescence was measured using a microplate reader (VarioSkan Flash, Thermo Fisher Scientific, Finland) at 485 and 535 nm values of excitation and emission, respectively. Data was processed and analysed using ANOVA, which was followed by Duncan’s multiple comparison test.

T2 sequence (P06276 29-602): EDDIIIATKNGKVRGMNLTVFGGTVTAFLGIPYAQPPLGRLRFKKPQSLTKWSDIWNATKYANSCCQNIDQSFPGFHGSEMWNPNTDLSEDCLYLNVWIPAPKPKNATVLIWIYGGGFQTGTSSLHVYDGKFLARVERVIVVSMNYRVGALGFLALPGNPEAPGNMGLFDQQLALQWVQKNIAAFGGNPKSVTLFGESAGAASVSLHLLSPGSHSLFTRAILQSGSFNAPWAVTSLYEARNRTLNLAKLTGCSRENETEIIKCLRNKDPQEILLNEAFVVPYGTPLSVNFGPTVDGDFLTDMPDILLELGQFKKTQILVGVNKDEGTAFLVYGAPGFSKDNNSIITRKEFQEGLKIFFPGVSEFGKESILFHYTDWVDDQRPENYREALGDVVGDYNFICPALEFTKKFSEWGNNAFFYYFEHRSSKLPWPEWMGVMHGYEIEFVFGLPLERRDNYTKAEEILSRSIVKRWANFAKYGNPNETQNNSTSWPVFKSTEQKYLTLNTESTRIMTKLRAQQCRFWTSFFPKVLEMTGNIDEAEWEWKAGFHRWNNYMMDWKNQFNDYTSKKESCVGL
T1 sequence (P22303 32-614): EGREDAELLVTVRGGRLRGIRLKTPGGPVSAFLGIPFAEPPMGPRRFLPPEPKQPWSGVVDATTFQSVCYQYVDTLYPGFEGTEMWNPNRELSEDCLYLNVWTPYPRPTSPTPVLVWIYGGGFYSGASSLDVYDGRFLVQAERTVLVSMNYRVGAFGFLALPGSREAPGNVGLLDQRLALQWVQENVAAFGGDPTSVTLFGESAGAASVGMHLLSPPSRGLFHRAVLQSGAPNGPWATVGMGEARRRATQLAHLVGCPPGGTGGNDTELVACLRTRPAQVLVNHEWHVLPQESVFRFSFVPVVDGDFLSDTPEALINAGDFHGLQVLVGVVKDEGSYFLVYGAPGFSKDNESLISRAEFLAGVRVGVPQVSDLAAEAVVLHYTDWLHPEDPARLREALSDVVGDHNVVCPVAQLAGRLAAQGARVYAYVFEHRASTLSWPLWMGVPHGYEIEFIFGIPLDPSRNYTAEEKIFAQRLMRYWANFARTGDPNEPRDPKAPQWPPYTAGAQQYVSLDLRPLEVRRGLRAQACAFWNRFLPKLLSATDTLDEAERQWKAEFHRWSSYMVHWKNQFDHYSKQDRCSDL
T3 sequence (P56817 46-501): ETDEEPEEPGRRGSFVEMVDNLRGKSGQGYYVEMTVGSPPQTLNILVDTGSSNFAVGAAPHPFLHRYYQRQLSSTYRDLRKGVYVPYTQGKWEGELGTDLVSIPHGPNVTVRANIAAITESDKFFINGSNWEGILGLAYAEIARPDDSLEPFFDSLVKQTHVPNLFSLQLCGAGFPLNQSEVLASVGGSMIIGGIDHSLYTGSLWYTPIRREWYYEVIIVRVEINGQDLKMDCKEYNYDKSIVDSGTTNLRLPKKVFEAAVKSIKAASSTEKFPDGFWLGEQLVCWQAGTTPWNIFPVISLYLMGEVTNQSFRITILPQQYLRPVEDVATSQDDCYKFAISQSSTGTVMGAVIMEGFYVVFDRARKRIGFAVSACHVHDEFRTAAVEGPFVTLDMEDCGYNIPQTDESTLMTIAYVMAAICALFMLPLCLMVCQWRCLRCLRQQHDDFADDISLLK

In the case of `NC(=O)c1cc(/C=C/c2ccccc2)ccc1N` [Compound 2a, (E)-2-Amino-5-styrylbenzamide], the IC50 [1] is reported as 10.3 ± 0.12 µM, the “mode of inhibition AChE” value (AChE) is reported as “non-competitive” and the Ki (AChE; read-out: Ki (Dixon plot) AChE) is reported as 1.2 µM. For the same molecule, the “mode of inhibition BChE” value (BChE) was “mixed mode”, the Ki (BChE; read-out: Ki (Dixon plot) BChE) was 2 µM and the “mode of inhibition β-secretase” value (β-secretase) was “mixed mode”. The Ki (β-secretase; read-out: Ki (Dixon plot) β-secretase) was 3.44 ± 0.3 µM, the IC50 at 24 h [2] was 163 ± 0.55 µM and the IC50 at 24 h (in vitro) was 35.4 ± 0.13 µM. For the same molecule, the “suppression of LPS-induced ROS” value (Vero cells) was “about 60%”.
